{"source": "patent US12492173B2", "about": "“Herbicidal substituted N-tetrazolyl aryl carboxamides” (Bayer Aktiengesellschaft, priority 2019, dated 2025)", "assay_type_in_all_cases": "in vivo", "settings_in_all_cases": "comparative experiment, 20 g of a.i./ha", "key": {"Avena fatua": {"test_system": "Avena fatua", "test": "Pre-emergence herbicidal action, AVEFA", "source_text": "1. Pre-Emergence Herbicidal Action Against Harmful Plants Seeds of monocotyledonous and dicotyledonous weed plants and crop plants are laid out in sandy loam soil in wood-fiber pots and covered with soil. The compounds of the invention, formulated in the form of wettable powders (WP) or as emulsion concentrates (EC), are then applied to the surface of the covering soil in the form of an aqueous suspension or emulsion at a water application rate equating to 600 to 800 l/ha, with addition of 0.2% wetting agent. After the treatment, the pots are placed in a greenhouse and kept under good growth conditions for the trial plants. The damage to the test plants is scored visually after a test period of 3 weeks by comparison with untreated controls (herbicidal activity in percent (%): 100% activity=the plants have died, 0% activity=like control plants). […] The tables below illustrate, in an exemplary manner, the post-emergence herbicidal action of the compounds according to the invention, the herbicidal activity being stated in percent. [table] In the experiments that follow, herbicidal action of numerous inventive compounds and the known compounds that are structurally closest from D1 (WO 2012/028579 A1) and D2 (WO 2018/202535 A1) were compared under the above-specified conditions by the pre-emergence and post-emergence method. […]"}, "Pharbitis purpurea": {"test_system": "Pharbitis purpurea", "test": "Pre-emergence herbicidal action, PHBPU", "summary_of_the_method": "(§1)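 Pre-emergence soil spray over sandy loam-covered seeds; greenhouse 3 weeks; % visual damage (0% = control, 100% = dead).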"}, "Veronica persica": {"test_system": "Veronica persica", "test": "Pre-emergence herbicidal action, VERPE", "set-up": "key to Herbicidal action against VERPE: % activity: 100 = plants have died, 0 = like control plants", "summary_of_the_method": "as §1"}, "Viola tricolor": {"test_system": "Viola tricolor", "test": "Pre-emergence herbicidal action, VIOTR", "set-up": "key to Herbicidal action against VIOTR: % activity: 100 = plants have died, 0 = like control plants", "summary_of_the_method": "as §1"}, "Stellaria media": {"test_system": "Stellaria media", "test": "Pre-emergence herbicidal action, STEME", "set-up": "key to Herbicidal action against STEME: % activity: 100 = plants have died, 0 = like control plants", "summary_of_the_method": "as §1"}, "Matricaria inodora": {"test_system": "Matricaria inodora", "test": "Pre-emergence herbicidal action, MATIN", "set-up": "key to Herbicidal action against MATIN: % activity: 100 = plants have died, 0 = like control plants", "summary_of_the_method": "as §1"}}}
{"smiles": "CSCc1c(Cl)ccc(C(=O)Nc2nnnn2C)c1C", "note": "[Example 1-46]", "values": [{"measurement": "Herbicidal action against AVEFA", "setting": "Avena fatua", "result": 20}, {"measurement": "Herbicidal action against PHBPU", "setting": "Pharbitis purpurea", "result": 40}, {"measurement": "Herbicidal action against VERPE", "setting": "Veronica persica", "result": 50}, {"measurement": "Herbicidal action against VIOTR", "setting": "Viola tricolor", "result": 70}, {"measurement": "Herbicidal action against STEME", "setting": "Stellaria media", "result": 90}, {"measurement": "Herbicidal action against MATIN", "setting": "Matricaria inodora", "result": 80}]}
